Values joined by “and” are separate entries in the source; they are usually repeats but may differ in a detail not shown here. Equal values may be shown once. Inconclusive results and toxic doses are left out.
Test system: BALB/cJ mice, ADJ-PC-6 ip tumor, median survival T/C
Test: NCI In Vivo Anticancer Drug Screen. Data for tumor model ADJ-PC-6 (intraperitoneal) in BALB/cJ mice
Conditions: endpoint: median survival time, higher = longer survival
Experimental: The antitumor activity of compounds was measured in mice bearing transplantable tumors. Survival or tumor size were measured and the results are expressed as the measurement made in the treated group (T) divided by the measurement made in the vehicle treated control group (C). The tumor model used in this assay is ADJ-PC-6 (intraperitoneal) in BALB/cJ mice

[1] = dose: 20.0 mg/kg/injection, schedule: Q01DX009 (ip), vehicle: saline with Tween-80
[2] = dose: 0.25 mg/kg/injection, schedule: Q04DX003 (ip), vehicle: saline
[3] = dose: 0.5 mg/kg/injection, schedule: Q04DX003 (ip), vehicle: saline
[4] = dose: 1.0 mg/kg/injection, schedule: Q04DX003 (ip), vehicle: saline
[5] = dose: 2.0 mg/kg/injection, schedule: Q04DX003 (ip), vehicle: saline
[6] = dose: 3.75 mg/kg/injection, schedule: Q04DX003 (ip), vehicle: saline
[7] = dose: 7.5 mg/kg/injection, schedule: Q04DX003 (ip), vehicle: saline
[8] = dose: 15.0 mg/kg/injection, schedule: Q04DX003 (ip), vehicle: saline
[9] = dose: 30.0 mg/kg/injection, schedule: Q04DX003 (ip), vehicle: saline
[10] = dose: 60.0 mg/kg/injection, schedule: Q04DX003 (ip), vehicle: saline

For `CCN(CC)CCOC(=O)c1ccc(NCN2C(=O)CCC2=O)cc1`, the T/C (dose: 10.0 mg/kg/injection, schedule: Q01DX009 (ip), vehicle: water) was 110 % of control, the T/C (dose: 20.0 mg/kg/injection, schedule: Q01DX009 (ip), vehicle: water) was 96 % of control and the T/C (dose: 40.0 mg/kg/injection, schedule: Q01DX009 (ip), vehicle: water) was 98 % of control. The T/C (dose: 80.0 mg/kg/injection, schedule: Q01DX009 (ip), vehicle: water) was 105 % of control and the T/C (dose: 160.0 mg/kg/injection, schedule: Q01DX009 (ip), vehicle: water) was 92 % of control.

In the case of `[Cl][Pt+2][Cl].[NH-]C1CCCC1.[NH2-]`, the T/C (dose: 1.04 mg/kg/injection, schedule: Q04DX003 (ip), vehicle: saline) is reported as 204 % of control, the T/C (dose: 1.73 mg/kg/injection, schedule: Q04DX003 (ip), vehicle: saline) is reported as 254 % of control and the T/C (dose: 2.88 mg/kg/injection, schedule: Q04DX003 (ip), vehicle: saline) is reported as 385 % of control. The T/C (dose: 4.8 mg/kg/injection, schedule: Q04DX003 (ip), vehicle: saline) was 445 % of control and the T/C (dose: 8.0 mg/kg/injection, schedule: Q04DX003 (ip), vehicle: saline) was 451 % of control.

With `Nc1nc(F)nc2c1ncn2C1OC(COP(=O)(O)O)C(O)C1O` (stereo unspecified) the T/C (dose: 25.0 mg/kg/injection, schedule: Q01DX009 (ip), vehicle: saline) was 90 % of control, the T/C (dose: 50.0 mg/kg/injection, schedule: Q01DX009 (ip), vehicle: saline) was 91 % of control and the T/C (dose: 100.0 mg/kg/injection, schedule: Q01DX009 (ip), vehicle: saline) was 104 % of control.

`CC1CCC(NC(=O)N(CCCl)N=O)CC1` (stereo unspecified) was tested, and the T/C (dose: 1.25 mg/kg/injection, schedule: Q04DX003 (ip), vehicle: other) was 120 % of control, the T/C (dose: 2.5 mg/kg/injection, schedule: Q04DX003 (ip), vehicle: other) was 182 % of control and 183 % of control and the T/C (dose: 5.0 mg/kg/injection, schedule: Q04DX003 (ip), vehicle: other) was 158 % of control and 355 % of control. For the same molecule, the T/C (dose: 10.0 mg/kg/injection, schedule: Q04DX003 (ip), vehicle: other) was 337 % of control and 355 % of control and the T/C (dose: 20.0 mg/kg/injection, schedule: Q04DX003 (ip), vehicle: other) was 272 % of control and 297 % of control.

For `Nc1nc(=S)c2[nH]cnc2[nH]1`, the T/C (dose: 0.5 mg/kg/injection, schedule: Q01DX009 (ip), vehicle: alkali diluted with saline) was 194 % of control and 239 % of control, the T/C (dose: 1.0 mg/kg/injection, schedule: Q01DX009 (ip), vehicle: alkali diluted with saline) was 194 % of control and 267 % of control and the T/C (dose: 2.0 mg/kg/injection, schedule: Q01DX009 (ip), vehicle: alkali diluted with saline) was 194 % of control and 267 % of control. For the same molecule, the T/C (dose: 4.0 mg/kg/injection, schedule: Q01DX009 (ip), vehicle: alkali diluted with saline) was 194 % of control.

`CC(C)NC(=O)OCc1c(COC(=O)NC(C)C)c(-c2ccc(Cl)c(Cl)c2)n2c1CCC2` was tested, and the T/C (dose: 3.75 mg/kg/injection, schedule: Q01DX009 (ip), vehicle: saline with Tween-80) was 235 % of control, the T/C (dose: 5.0 mg/kg/injection, schedule: Q01DX009 (ip), vehicle: saline with Tween-80) was 222 % of control and the T/C (dose: 7.5 mg/kg/injection, schedule: Q01DX009 (ip), vehicle: saline with Tween-80) was 235 % of control. The T/C (dose: 10.0 mg/kg/injection, schedule: Q01DX009 (ip), vehicle: saline with Tween-80) was 222 % of control, the T/C (dose: 15.0 mg/kg/injection, schedule: Q01DX009 (ip), vehicle: saline with Tween-80) was 235 % of control and the T/C [1] was 222 % of control. For the same molecule, the T/C (dose: 30.0 mg/kg/injection, schedule: Q01DX009 (ip), vehicle: saline with Tween-80) was 235 % of control and the T/C (dose: 60.0 mg/kg/injection, schedule: Q01DX009 (ip), vehicle: saline with Tween-80) was 235 % of control.

In the case of `NC(C/[N+]([O-])=N/O)C(=O)O` (stereo unspecified), the T/C (dose: 50.0 mg/kg/injection, schedule: Q04DX003 (ip), vehicle: alkali diluted with saline) is reported as 108 % of control, the T/C (dose: 100.0 mg/kg/injection, schedule: Q04DX003 (ip), vehicle: alkali diluted with saline) is reported as 115 % of control and the T/C (dose: 250.0 mg/kg/injection, schedule: Q04DX003 (ip), vehicle: alkali diluted with saline) is reported as 153 % of control. For the same molecule, the T/C (dose: 400.0 mg/kg/injection, schedule: Q04DX003 (ip), vehicle: alkali diluted with saline) was 171 % of control, the T/C (dose: 500.0 mg/kg/injection, schedule: Q04DX003 (ip), vehicle: alkali diluted with saline) was 188 % of control and the T/C (dose: 800.0 mg/kg/injection, schedule: Q04DX003 (ip), vehicle: alkali diluted with saline) was 167 % of control.

`CCN(CC)CCNc1ccc(C)c2sc3ccccc3c(=O)c12` was tested, and the T/C (dose: 12.5 mg/kg/injection, schedule: Q04DX003 (ip), vehicle: water) was 103 % of control, the T/C (dose: 50.0 mg/kg/injection, schedule: Q04DX003 (ip), vehicle: water) was 113 % of control and the T/C (dose: 100.0 mg/kg/injection, schedule: Q04DX003 (ip), vehicle: water) was 91 % of control.

`CC[C@]1(O)C[C@H]2CN(CCc3c([nH]c4ccccc34)[C@@](C(=O)OC)(c3cc4c(cc3OC)N(C=O)[C@H]3[C@@](O)(C(=O)OC)[C@H](OC(C)=O)[C@]5(CC)C=CCN6CC[C@]43[C@@H]65)C2)C1` was tested, and the T/C (dose: 0.13 mg/kg/injection, schedule: Q04DX003 (ip), vehicle: saline) was 99 % of control and 110 % of control, the T/C [2] was 101 % of control and 110 % of control and the T/C [3] was 97 % of control and 102 % of control. The T/C [4] was 106 % of control and 121 % of control and the T/C [5] was 122 % of control.

For `CCC1(O)CC2CN(CCc3c([nH]c4ccccc34)C(C(=O)OC)(c3cc4c(cc3OC)N(C)C3C(O)(C(N)=O)C(O)C5(CC)C=CCN6CCC43C65)C2)C1` (stereo unspecified) (tested in a mixture with another compound), the T/C [2] was 92 % of control and 100 % of control, the T/C [3] was 106 % of control and the T/C [4] was 102 % of control. For the same molecule, the T/C [5] was 115 % of control and 235 % of control.

`Cc1c2ccncc2c(C)c2c1[nH]c1ccccc12` was tested, and the T/C (dose: 6.25 mg/kg/injection, schedule: Q04DX003 (ip), vehicle: saline with Tween-80) was 122 % of control, the T/C (dose: 25.0 mg/kg/injection, schedule: Q04DX003 (ip), vehicle: saline with Tween-80) was 190 % of control and the T/C (dose: 50.0 mg/kg/injection, schedule: Q04DX003 (ip), vehicle: saline with Tween-80) was 255 % of control. The T/C (dose: 100.0 mg/kg/injection, schedule: Q04DX003 (ip), vehicle: saline with Tween-80) was 250 % of control.

For `O=NN(CCCl)C(=O)NCCCl`, the T/C (dose: 1.25 mg/kg/injection, schedule: Q04DX003 (ip), vehicle: saline + alcohol) was 106 % of control, the T/C (dose: 5.0 mg/kg/injection, schedule: Q04DX003 (ip), vehicle: saline + alcohol) was 101 % of control and 178 % of control and 248 % of control and the T/C (dose: 10.0 mg/kg/injection, schedule: Q04DX003 (ip), vehicle: saline + alcohol) was 150 % of control and 322 % of control. The T/C (dose: 20.0 mg/kg/injection, schedule: Q04DX003 (ip), vehicle: saline + alcohol) was 222 % of control and 235 % of control and 355 % of control and the T/C (dose: 40.0 mg/kg/injection, schedule: Q04DX003 (ip), vehicle: saline + alcohol) was 92 % of control and 235 % of control.

In the case of `CC[C@](O)(C(=O)O)c1cc2n(c(=O)c1CO)Cc1cc3ccccc3nc1-2`, the T/C [6] is reported as 111 % of control, the T/C [7] is reported as 120 % of control and the T/C (dose: 10.0 mg/kg/injection, schedule: Q04DX003 (ip), vehicle: saline) is reported as 158 % of control. For the same molecule, the T/C [8] was 115 % of control, the T/C (dose: 20.0 mg/kg/injection, schedule: Q04DX003 (ip), vehicle: saline) was 185 % of control and the T/C [9] was 158 % of control. For the same molecule, the T/C (dose: 40.0 mg/kg/injection, schedule: Q04DX003 (ip), vehicle: saline) was 174 % of control, the T/C [10] was 188 % of control and the T/C (dose: 80.0 mg/kg/injection, schedule: Q04DX003 (ip), vehicle: saline) was 196 % of control.

With `CN(C)c1nc(N(C)C)nc(N(C)C)n1` the T/C [1] was 102 % of control, the T/C (dose: 40.0 mg/kg/injection, schedule: Q01DX009 (ip), vehicle: Klucel (hydroxypropylcellulose) (HPC)) was 96 % of control and the T/C (dose: 40.0 mg/kg/injection, schedule: Q01DX009 (ip), vehicle: saline with Tween-80) was 100 % of control.

`CO[C@@]12[C@H](COC(N)=O)C3=C(C(=O)C(C)=C(N)C3=O)N1C[C@@H]1N[C@@H]12` was tested, and the T/C (dose: 1.5 mg/kg/injection, schedule: Q04DX003 (ip), vehicle: saline) was 239 % of control and the T/C (dose: 3.0 mg/kg/injection, schedule: Q04DX003 (ip), vehicle: saline) was 335 % of control.

With `Cc1c(N)nc([C@H](CC(N)=O)NC[C@H](N)C(N)=O)nc1C(=O)N[C@H](C(=O)N[C@H](C)[C@@H](O)[C@H](C)C(=O)N[C@H](C(=O)NCCc1nc(-c2nc(C(=O)NCCC[S+](C)C)cs2)cs1)[C@@H](C)O)C(OC1OC(CO)C(O)C(O)C1OC1OC(CO)C(O)C(OC(N)=O)C1O)c1cnc[nH]1` (stereo partly specified) the T/C [6] was 101 % of control and 108 % of control, the T/C [7] was 89 % of control and 116 % of control and the T/C [8] was 102 % of control. The T/C [9] was 105 % of control and 112 % of control and the T/C [10] was 106 % of control and 116 % of control.

From PubChem BioAssay AID184 (DTP/NCI, 2004)
